From patent US20100330029A1, “Cancer Treatments with Radiation and Immunocytokines” (Merck Patent GmbH, priority 2008, published 2010)

Experiments:
CT26-specific T-cells = test: ELISPOT assay for IFNγ induction in splenocytes, CT26/KSA model; assay type: in vivo, mice; conditions: radiation followed by EMD521873, compared to either therapy alone
Description: Enzyme-linked immunospot C (ELISPOT) assays for IFNγ induction in splenocytes were conducted by first coating ELISPOT plates with an anti-IFNγ antibody (murine IFNγ kit, BD Biosciences). Splenocytes from treated mice were added to the plates and incubated with an AH1:A5 peptide to stimulate IFNγ release from CT26-specific T-cells. Biotinylated IFNγ detection Ab and streptavidin-HRP were added to the plates. Resultant spots from individual IFNγ-producing lymphocytes were counted using a Zeiss® KS-ELISPOT plate reader.

[1] = test system: non-small cell lung cancer; test: dose-escalation trial in non-small cell lung cancer; assay type: in vivo; conditions: human NSCLC; local irradiation 5×4 Gy then EMD521873 at a dose level below the MTD
Description: An dose-escalation trial is performed using EMD521873 in combination with local irradiation (20 Gy) of primary tumors or metastases in subjects with non-small cell lung cancer stage IIIb with malignant pleural effusion or stage IV with disease control (partial response or stable disease) after application of 4 cycles of platinum-based, first-line chemotherapy.
Subjects receive local irradiation (5×4 Gy) given over 5 consecutive days, prior to the first treatment cycle with EMD521873. After a 2-day treatment-free interval, intravenous infusions of EMD521873 are given on 3 consecutive days in 3-week cycles.
In each cycle, patients receive EMD521873 given as a once-daily, 1-h intravenous infusion on 3 consecutive days (days 1-3) followed by an 18-day treatment-free break (days 4-21).
Dose escalation of EMD521873 is performed in cohorts of 3 subjects at dose levels of 0.15, 0.30, and 0.45 mg/kg. Escalation to the next dose level is based on the number of dose limiting toxicities (DLTs) observed, if any, during the DLT evaluation period (i.e. the 21 days following the day of first infusion of […] in the first cycle). DLTs are defined as any grade ≧3 toxicity assessed as related to trial treatment (EMD521873 and/or radiation). If no DLT occurs in the 3 subjects, the next 3 subjects are recruited at the next highest dose level. […]

[2] = test system: Lewis Lung Carcinoma cells; test: rechallenge of cured mice with Lewis Lung Carcinoma cells; assay type: in vivo
Description: The ability of irradiation followed by intravenous administration of the exemplary immunocytokine EMD521873 to generate a long lasting immune response was tested by rechallenging cured mice with tumor cells. Mice bearing Lewis Lung Carcinoma tumors were originally treated with either fractionated radiation (3.6 Gy/d, d0-4) plus cisplatin (4 mg/kg, d0), EMD521873 alone (5 mg/kg, d7, 8, 9), or the combination of EMD521873 plus chemoradiation.

[3] = test system: CD8 cell infiltration in tumors; test: immunohistochemical analysis of CD8 cell infiltration in LLC tumors; assay type: in vivo, mice; conditions: Experiment LLC-6; combination compared to the monotherapies
Description: In another experiment, LLC tumors were established subcutaneously in both the leg and flank of the same animal. Animals were then treated with either cisplatin (4 mg/kg, d0) plus fractionated radiation given to the leg tumor (3.6 Gy/d, d0-4), i.v. EMD521873 alone (5 mg/kg, d7, 8, 9), or the combination of EMD521873 plus chemoradiation (Experiment LLC-6). Tumor growth and immune response in both the irradiated leg tumor and the non-irradiated flank tumor were monitored. […] CD8 effector cells were increased by approximately 4-fold in the blood with the combination compared to either chemoradiation or EMD521873 alone.

[4] = test system: T cell and T cell activation-associated genes in the tumor; test: qPCR gene profiling of tumors, CT26/KSA model; assay type: in vivo, mice
Description: Gene profiling of tumors was analyzed using excised tumor tissues placed in RNAlater® RNA stabilizing reagent upon harvest. Total RNA was prepared with an RNeasy® kit (Qiagen) and cDNA was prepared with the Superscript® III kit for qPCR (Life Technologies, Inc.). qPCR reactions were performed on an ABI7500 instrument in a standardized fashion and relative changes in gene expression were analyzed using the ddCt method (efficiency factor 95%). Housekeeping genes used for comparison included ACTB, B2M and HPRT1.

LLC tumors = test: survival after surgical removal of treated LLC tumor; assay type: in vivo, mice; conditions: Experiment LLC-7; EMD521873 5 mg/kg d7, 8, 9 plus chemoradiation; tumor removed day 12 or 13
Description: For the tumor growth assay, cells growing exponentially in culture were injected as a single cell suspension in 100 μl of PBS intramuscularly into the upper legs of the mice. In experiments using a dual tumor model, cells were also implanted in the flanks of the mice. After tumors had become established, treatment was initiated (day 0). In Experiment LLC-7, tumors were implanted in the flank until established. Mice were treated on days 0 to 9, then, on day 12, tumors were excised using survival surgery. Thereafter, animal survival was monitored. In Experiment LLC-14, tumors were implanted subcutaneously in the flank until established. Mice were treated on days 0 to 6 and day 17, and tumor size was measured twice weekly for the duration of the study.
In another experiment the ability of local irradiation followed by immunocytokine administration to reduce tumor recurrence following surgery was tested (Experiment LLC-7). Mice with subcutaneous LLC tumors were treated with either chemoradiation (cisplatin 4 mg/kg, d0 plus 3.6 Gy/d, d0-4 of fractionated radiation given to the tumor) or EMD521873 (5 mg/kg, d7, 8, 9) plus chemoradiation. The remaining tumor was then surgically removed on day 12 or 13 and survival was monitored. Ten out of 12 mice treated with the combination achieved long term survival compared to 6 out of 10 treated with radiation alone.

## dI-NHS76γ2(h)(FN>AQ)-ala-IL2(D20T) [EMD521873]
CT26-specific T-cells
  increase in T cell response (ELISPOT, endogenous CT26 antigen): > 4 fold
[1]
  rates of tumor response (CT or MRI scan): improved rates of tumor response
[2]; EMD521873/Chemoradiation treatment, s.c. LLC rechallenge after complete remission >50 days
  mice with complete response that did not regrow tumor on rechallenge: 12 out of 13
[2]; Exp LLC-4, cured C57BL/6 mice rechallenged with LLC cells
  Immunity to Rechallenge: 0/1
[2]; LLC-8, LLC-9, combination with chemoradiation
  mice with complete responses immune to rechallenge with LLC cells: Four out of 4
[3]
  CD8 cell infiltration enhanced, irradiated lesion: 9 fold
  CD8 cell infiltration enhanced, non-irradiated lesion: 3.5 fold
[4]; radiation followed by EMD521873 (combination)
  levels of FoxP3 gene expression in the tumor: did not increase
[4]; radiation followed by EMD521873, compared to either EMD521873 or radiation alone
  CD8, Granzyme B, and IFNγ gene expression increase in the tumor: 3.5-4.6 fold
LLC tumors
  long term survival after surgery: Ten out of 12
